The text below walks through data of publication PMC12406255, “Engineering Peptide Modulators for T‑Cell Migration by Structural Scaffold Matching” (Journal of Medicinal Chemistry, 2025).

Positions of bridges follow the written chain, without caps; N, C: chain ends. Non-standard residues stand in square brackets, D forms with d. Residues, ends and D or L forms follow the SMILES beside them. Nle = CCCC[C@H](N)C(=O)O

This assay has as its system CD3+ lymphocytes. The experiment in a line: cells. Type of assay: cell-based, human. Particulars: for % Inhibition of cell migration compared to control, CD3+: normalized to untreated control, mean ± SEM of 4-6 experiments. The method, then:
1 Transwell-based migration assay to study lymphocyte transendothelial migration. (A) The general principle of the transwell migration assay is depicted. Endothelial cells (EC) are seeded in transwell inserts and are incubated for 2 days to form an EC monolayer. On the day before the assay, the ECs are cytokine-stimulated to induce the expression of adhesion molecules. In the migration assay, human peripheral blood mononuclear cells (PBMC) are placed into the donor compartment of the transwell setup. After 4 h of incubation time, the migrated cells are harvested from the receiver compartment, stained with fluorescent antibodies and counted using flow cytometry. (B) PBMCs were preincubated with S1P for 1.5 h and then transferred into the donor compartment on top of the EC monolayer. […] Data are shown as mean ± SD of 3 to 5 independent experiments.
Transwell migration assays were performed similarly as published previously. HMEC-1 cells were seeded at a density of 75,000 cells per well in transwell inserts. Three days after cell seeding, the medium was changed, and the cells were stimulated with 100 ng/mL TNF-α and 20 ng/mL IFN-γ for 16–18 h. On the day of the assay, cells were washed with migration medium (serum-free RPMI medium supplemented with 0.1% BSA) to remove residual cytokines and starved for at least 1 h at 37 °C in migration medium. PBMC were starved for at least 1.5 h in migration medium before addition to the EC. For S1P and lifitegrast-treated samples, the PBMC were preincubated for at least 1.5 h at 37 °C with the ligands before addition to the EC. Pepitem and other peptides were added onto the EC monolayer and preincubated for 15–30 min at 37 °C before the addition of the PBMC. 200,000 PBMC per well were added directly on top of the EC prestimulated with pepitem or other peptides to reach a final volume of 150 μL in the donor compartments. The receiver compartments of the wells were filled with 600 μL RPMI with 20% FBS. After 4 h of migration at 37 °C, the receiver compartment with the migrated cells was collected. The migrated cells were stained with the indicated antibodies: CD3-APC (clone: OKT3, lot: B400127), CD4-PE (clone: OKT4. lot: B379180), CD8-FITC (clone: HIT8a, lot: B370193) from Biolegend and CD3-VioGreen (clone: REA613, lot: 5240502518), CD45RO-FITC (clone: REA611, lot: 5240502519), CD4-PerCP-Vio700 (clone: REA623, lot: 5240506702), CXCR3 PE-Vio615 (clone: REA232, lot: 5240506722), CD196-APC (clone: REA190, lot: 5240506717), CD8-APC-Vio770 (clone: REA734, lot: 5240303993) and CD45RO-PEVio616 (clone: REA611, lot: 5231102514) from Miltenyi Biotec (Bergisch Gladbach, Germany) and counted using precision counting beads (Biolegend) on a CytoflexS flow cytometer (BeckmanCoulter). Data was analyzed using CytExpert (Version 2.4). T cells were gated as CD3^+ cells, T cell subsets were gated as CD4^+ (CD3^+, CD4^+), CD8^+ (CD3^+, CD8^+), memory CD4^+ (CD3^+, CD4^+, CD45RO^+), memory CD8^+ (CD3^+, CD8^+, CD45RO^+) and Th1 cells (CD3^+, CD4^+, CXCR3^+, CCR6^–).
Data were analyzed using GraphPad Prism software. EC50 values were calculated by three-parameter nonlinear regression analysis. For this, the data points were normalized to the number of migrated cells in untreated (buffer) control samples (100%), and the regression was fitted with the top constraint to 100 and the slope fixed to 1. Statistical significance is indicated in graphs as n.s. not significant, * p < 0.05; ** p < 0.01; *** p < 0.001. The statistical tests used are indicated in the respective figure captions.

Take `CCCC[C@@H]1NC(=O)[C@H](C(C)C)NC(=O)[C@H](CCCCN)NC(=O)[C@@H](NC(=O)[C@H](CCC(N)=O)NC(=O)[C@H](CCC(=O)O)NC(C)=O)CSSC[C@@H](C(=O)N[C@@H](CCC(=O)O)C(=O)N[C@@H](CCCCN)C(N)=O)NC(=O)[C@H](CC(N)=O)NC(=O)[C@H](CC(=O)O)NC(=O)[C@H](CC(C)C)NC(=O)[C@@H]2CSSC[C@H](NC1=O)C(=O)N[C@@H](Cc1ccc(O)cc1)C(=O)N[C@@H](C)C(=O)N[C@@H](CCC(N)=O)C(=O)NCC(=O)N[C@@H](C)C(=O)N[C@@H](CCC(=O)O)C(=O)N[C@@H](CC(C)C)C(=O)N1CCC[C@H]1C(=O)N[C@@H](CCC(=O)O)C(=O)N[C@@H](CC(C)C)C(=O)N[C@@H](CC(C)C)C(=O)N[C@@H](CCCNC(=N)N)C(=O)N[C@@H](CCCNC(=N)N)C(=O)N2` [VhTI-pep 2] (Ac-EQCKV[Nle]CYAQGAELPELLRRCLDNCEK-NH2; disulfide 3-25, 7-21): the “% Inhibition of cell migration compared to control, CD3+” value by setting is: (0.1 μM) 28.7 ± 6.4%; (1 μM) 37.2 ± 6.8%. Besides, for the setting “EC monolayer preincubated with peptide 15-30 min, healthy-donor PBMC added, 4 h migration, flow cytometry, mean ± SD of 3 to 5 (VhTI-pep 2: 4) independent experiments, read-out: EC50, inhibition of CD3+ lymphocyte migration”, the EC50 is 10.6 ± 16.5 nM. Where the note is “from the concentration-response experiment”, the “maximal effect of inhibition of cell migration, CD3+ lymphocytes” value is given as 39.3 ± 8.7%.
